# Tested on: PBL from HLA-A3 antigen positive melanoma patients
# Experiment: ELISPOT in PBL from HLA-A3 antigen positive melanoma patients
# Type: cell-based, human
# Procedure: T-cell response against the ML-IAP245-253 ([…]) peptide as measured in an ELISPOT in PBL from 14 melanoma patients. T-lymphocytes were stimulated once with peptide before plated in triplicates either without or with peptide. The average number of peptide specific cells (after subtraction of spots without added peptide) was calculated for each patient as the number of spot forming cells per 10^5 CD8 positive cells after subtraction of the number of background spots formed without addition of peptide using the ImmunoSpot® Series 2.0 Analyzer (CTL Analyzers, LLC, Cleveland, US).
# To extend the sensitivity of the ELISPOT assay, PBL were stimulated once in vitro prior to analysis^17,18. At day 0, PBL or crushed lymph nodes were thawed and plated in 2 ml/well at a concentration of 2×10^6 cells in 24-well plates (Nunc, Denmark) in X-vivo medium (Bio Whittaker, Walkersville, Md.), 5% heat-inactivated human serum, and 2 mM of L-glutamine in the presence of 10 μM of peptide. […]
# The ELISPOT assay used to quantify peptide epitope-specific interferon-γ-releasing effector cells was performed as described previously^19. […] The spots were counted using the AlphaImager System (Alpha Innotech, San Leandro, Calif. USA) and the peptide specific CTL frequency could be calculated from the numbers of spot-forming cells. […]
sequence,measurement,setting,value
RLQEERTCK (listed as Homo sapiens) [mL-IAP245-253],peptide specific T-cells per 10^5 CD8+ cells,in the five responding patients,more than 200 per 10^5 CD8+ cells
same,patients hosting an immune response against the peptide,"of 14 HLA-A3 antigen positive melanoma patients, response of more than 200 specific T-cells per 10^5 CD8+ cells",five

# — patent publication US7687465B2, “Therapeutic cancer vaccine” (Kraeftens Bekaempelse, priority 2003, dated 2010)
